Marks after values point to notes of the source that are not given here.
Target: μ-opioid receptor (MOR) (Rattus norvegicus, UniProt P33535)
Assay: biochemical
Details: for Radioligand SB at 30 μM of ligand (% of radioligand specific binding): mean and standard deviation; for % of radioligand specific binding at 3 μM, mean / % of radioligand specific binding at 10 μM, mean / % of radioligand specific binding at 30 μM, mean: initial screening; for MOR binding, times weaker than that of the linear counterpart: ratio of IC50 values, cyclic analog vs its linear counterpart
Description: The binding affinity of cyclic and linear enkephalin analogs for μ-opioid receptor (MOR) was determined in competitive radioligand binding assays using membrane preparations from rat brain homogenates. The homogenates were obtained as described previously (Matalińska et al. [2020]). The membrane preparations were incubated at 25 °C for 60 min in the presence of 1.0 nM [^3H]DAMGO (obtained from PerkinElmer, USA) and the set of concentrations of the assayed compound proper for a particular compound and type of determination (screening or a full-displacement curve).
For screening purposes, we performed the experiments with the following concentrations of the compounds tested: 30 μM, 10 μM, and 3 μM. For full-displacement curves, 10 concentrations ranging either from 0.03 nM to 1 μM or from 300 nM to 30 μM were used. The range was chosen for the single compounds in a manner such that the expected IC50 would fall in the middle of the range. In the case of several experiments, only five concentrations were used (they are marked in the results table).
Non-specific binding was measured in the presence of 10 μM naloxone. The assays were conducted with the assay buffer made of 50 mM Tris–HCl (pH 7.4), bacitracin (100 μg/ml), bestatin (30 μM), and captopril (10 μM), phenylmethylsulfonyl fluoride (PMSF, 30 μg/ml) in a total volume of 0.5 ml. After the incubation, a rapid filtration with a M-24 Cell Harvester (Brandel/USA) through GF/B Whatman glass fiber strips was conducted. The filters were soaked with 0.5% PEI just before the harvesting so as to minimize the extent of non-specific binding. Filter disks were cut from the sheet and placed separately in 24-well plates. The Optiphase Supermix scintillation solution (Perkin Elmer, USA) was added to each well. Radioactivity was measured in a scintillation counter MicroBeta LS, Trilux (PerkinElmer, USA). Displacement curves were drawn and the mean IC50 values were determined with SEMs (GraphPad Prism v. 5.0, San Diego, CA).

[1] = IC50 (estimation based on the screening results), estimated from screening at 30 μM, 10 μM and 3 μM, [3H]DAMGO, rat brain membranes
[2] = IC50 ± S.E.M., full-displacement curves, 1.0 nM [3H]DAMGO, rat brain membranes, 25 °C, 60 min, mean of 2 or 3 experiments unless footnoted
[3] = estimated IC50, estimated from initial screening at 30, 10 and 3 μM

Chain of μ-opioid receptor (MOR) (P33535 whole entry): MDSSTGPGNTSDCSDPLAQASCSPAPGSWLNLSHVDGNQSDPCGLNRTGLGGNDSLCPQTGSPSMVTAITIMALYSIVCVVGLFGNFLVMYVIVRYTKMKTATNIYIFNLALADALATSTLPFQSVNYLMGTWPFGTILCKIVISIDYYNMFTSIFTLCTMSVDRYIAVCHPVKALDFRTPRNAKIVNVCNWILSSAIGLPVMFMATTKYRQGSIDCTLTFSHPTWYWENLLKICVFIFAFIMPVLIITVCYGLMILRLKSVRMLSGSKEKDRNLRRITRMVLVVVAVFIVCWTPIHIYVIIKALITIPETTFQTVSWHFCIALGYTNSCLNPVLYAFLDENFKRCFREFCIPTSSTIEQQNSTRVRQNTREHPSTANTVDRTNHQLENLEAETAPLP

| Molecule | Radioligand SB at 30 μM of ligand (% of radioligand specific binding) ([3H]DAMGO) [%] | % of radioligand specific binding at 3 μM, mean | % of radioligand specific binding at 10 μM, mean | % of radioligand specific binding at 30 μM, mean | IC50 [1] [µM] | IC50 [2] [µM] | IC50 [3] [µM] | MOR binding, times weaker than that of the linear counterpart [times] | MOR binding reduced, times, compared to the parent [Leu^5]enk-NH2 (ratio of IC50 values vs [Leu^5]enk-NH2) |
| --- | --- | --- | --- | --- | --- | --- | --- | --- | --- |
| H-(cyclo-m,p)-[Tyr-Gly-Gly-Phe]-Leu-OH [c-(Tyr-m-Phe-p)-L-OH] | 36 ± 6 | 88% | 60% | 36% |  |  |  |  |  |
| CC(C)C[C@H](NC(=O)[C@@H]1Cc2ccc(cc2)-c2cc(ccc2O)C[C@H](N)C(=O)NCC(=O)NCC(=O)N1)C(N)=O [c-(Tyr-m-Phe-p)-L-NH2, H-(cyclo-m,p)-[Tyr-Gly-Gly-Phe]-Leu-NH2] | 77 ± 4 | 99% | 78% | 77% | > 30 |  |  |  |  |
| CSCC[C@H](NC(=O)[C@@H]1Cc2ccc(cc2)-c2cc(ccc2O)C[C@H](N)C(=O)NCC(=O)NCC(=O)N1)C(N)=O [c-(Tyr-m-Phe-p)-M-NH2, H-(cyclo-m,p)-[Tyr-Gly-Gly-Phe]-Met-NH2] | 12 ± 4 | 49% | 34% | 12% |  | 1.37 ± 0.266 | ~1 | ~500 |  |
| H-FGGFL-NH2 [[Phe^1,Leu^5]enk-NH2, H-Phe-Gly-Gly-Phe-Leu-NH2, reference compound] | 5 ± 1 | 26^c) % | 13^c) % | 5^c) % |  | 0.596 ± 0.0488 | < 3 |  |  |
| H-Phe-Gly-Gly-Tyr-Leu-NH2 (H-FGGYL-NH2) [[Phe^1,Tyr^4,Leu^5]enk-NH2, reference compound] | 43 ± 11 | 85% | 61% | 43% |  |  |  |  |  |
| CC(C)C[C@H](NC(=O)[C@@H]1Cc2ccc(O)c(c2)-c2ccc(cc2)C[C@H](N)C(=O)NCC(=O)NCC(=O)N1)C(N)=O [c-(Phe-p-Tyr-m)-L-NH2, H-(cyclo-p,m)-[Phe-Gly-Gly-Tyr]-Leu-NH2] | 17 ± 3 | 62^c) % | 34^c) % | 17^c) % |  | 6.67 ± 0.262 |  |  |  |
| CC(C)C[C@H](NC(=O)[C@@H]1Cc2ccc(O)c(c2)-c2cc(ccc2O)C[C@H](N)C(=O)NCC(=O)NCC(=O)N1)C(N)=O [c-(Tyr-m-Tyr-m)-L-NH2, H-(cyclo-m,m)-[Tyr-Gly-Gly-Tyr]-Leu-NH2] | 117 ± 1 | 87% | 102% | 117% | > 30 |  |  |  |  |
| CC(C)C[C@H](NC(=O)[C@@H]1Cc2ccc(cc2)-c2ccc(cc2)C[C@H](N)C(=O)NCC(=O)NCC(=O)N1)C(N)=O [c-(Phe-p-Phe-p)-L-NH2, H-(cyclo-p,p)-[Phe-Gly-Gly-Phe]-Leu-NH2] | 73 ± 19 | 110% | 78% | 73% | > 30 |  |  |  |  |
| CC(C)C[C@H](NC(=O)[C@@H]1Cc2cccc(c2)-c2cc(ccc2O)C[C@H](N)C(=O)NCC(=O)NCC(=O)N1)C(N)=O [c-(Tyr-m-Phe-m)-L-NH2, H-(cyclo-m,m)-[Tyr-Gly-Gly-Phe]-Leu-NH2] | 12 ± 3 | 64% | 28% | 12% |  | 3.08 |  | ~500 |  |
| H-YGGYL-NH2 [[Tyr^4,Leu^5]enk-NH2, H-Tyr-Gly-Gly-Tyr-Leu-NH2, reference compound] |  |  |  |  |  | 0.222 ± 0.0159 |  |  | about 40 times |

Reference: paper PMC10907494, “Applications of biaryl cyclization in the synthesis of cyclic enkephalin analogs with a highly restricted flexibility” (Amino Acids, 2024)
